Results: article PMC12392461, “Beyond Estrogenicity: A Comparative Assessment of Bisphenol A and Its Alternatives in In Vitro Assays Questions Safety of Replacements” (Environmental Science & Technology, 2025)
Where two headings read alike, the source gives them in different places.

What was measured:
[1] = target: T1, Peroxisome proliferator-activated receptor γ (Homo sapiens, UniProt P37231); assay: cell-based; details: for EC10, PPARγ (M): 10% of maximum effect of rosiglitazone; for EC10, linear transformed / EC10, linear / logEC10: PPARγ bioassay; for EC10, linear: linear model; for logEC10: log-logistic model; for SR-ScorePPARγ: SR-Score, sigma k=1, x=5; for EC10, PPARγ: effect; for log(1/EC10) PPARγ: input of the ToxPi score, values up to 1.00; for Emax: read-out: Emax%PPARγ; for Specificity ratio (SRbaseline) SRPPARγ: against baseline cytotoxicity; for Specificity ratio (SRcytotoxicity) SRPPARγ: against experimental cytotoxicity
T1 sequence (P37231 238-505 limits assumed): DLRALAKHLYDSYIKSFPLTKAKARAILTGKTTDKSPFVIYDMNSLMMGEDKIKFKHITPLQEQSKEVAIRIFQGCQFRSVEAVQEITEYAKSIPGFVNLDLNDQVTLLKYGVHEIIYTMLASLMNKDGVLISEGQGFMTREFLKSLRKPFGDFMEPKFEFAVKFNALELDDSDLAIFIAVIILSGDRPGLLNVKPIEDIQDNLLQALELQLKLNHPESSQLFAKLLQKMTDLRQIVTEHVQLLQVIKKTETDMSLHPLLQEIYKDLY
Procedure, shortened: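 ERα-UAS-bla GripTite and PPARγ-UAS-bla β-lactamase reporter cells were seeded and held 24 h at 37 °C, 5% CO₂ before dosing. EC10 values used only concentrations below the IC10 from IncuCyte confluency. Emax% is the log-logistic curve maximum relative to the reference chemical's maximum.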

[2] = system: H4IIe (AhR CALUX); details: for IC10, linear transformed / IC10, linear / logIC10: Bioassay AhR, dosing range all; for IC10, linear transformed / IC10, linear / logIC10 / IC10, H4IIe, AhR: cytotoxicity; for IC10, linear: linear model fit; for logIC10: log-logistic model fit; for IC10, H4IIe, AhR: H4IIe (AhR assay cells); for Toxic ratio (TR) TRAhR: against baseline cytotoxicity
Procedure, shortened: (§1)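 IncuCyte confluency readout, pre- vs post-24 h exposure, normalized to no-cell wells. Seeding 24 h before dosing; ERα 5000, AhR 3250 cells/well. 11-point dilutions, duplicates, ≥3 independent runs. Methanol <1%. IC10 caps data used for EC10/ECIR1.5.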

[3] = system: HEK293H (PPARγ); details: for IC10, linear transformed / IC10, linear / logIC10: PPARγ bioassay cytotoxicity; for IC10, linear: linear model; for logIC10: log-logistic model; for IC10, HEK293, PPARγ: cytotoxicity, HEK293 (PPARγ assay cells); for Toxic ratio (TR) TRPPARγ: against baseline cytotoxicity
Procedure, shortened: as §1

[4] = system: HEK293T (ERα); details: for IC10, linear transformed / IC10, linear / logIC10: Bioassay ERα; for IC10, linear transformed / IC10, linear / logIC10 / IC10, HEK293, ERα: cytotoxicity; for IC10, linear: linear model fit; for logIC10: log-logistic model fit; for IC10, HEK293, ERα: HEK293 (ERα assay cells); for Toxic ratio (TR) TRERα: against baseline cytotoxicity
Procedure, shortened: as §1

[5] = system: MCF7 (ARE/MMP); details: for IC10, linear transformed / IC10, linear / logIC10: dosing range all; for IC10, MCF7, ARE: MCF7, ARE readout; for IC10, MCF7, MMP: MCF7, MMP readout; for Toxic ratio (TR) TRARE: ARE readout
Procedure, shortened: as §1

[6] = Bioassay ARE, cytotoxicity, linear model fit
[7] = Bioassay ARE, cytotoxicity, log-logistic model fit
[8] = MMP bioassay cytotoxicity, linear model
[9] = MMP bioassay cytotoxicity, log-logistic model

C=CCOc1ccc(S(=O)(=O)c2ccc(O)cc2)cc1 [BPS-MAE, 4-[[4-(Allyloxy)phenyl]sulfonyl]phenol]
EC10, PPARγ (M) [1]: 5.57 × 10^–7 M
EC10, linear transformed ([1]; dosing range all): 5.57E-07
EC10, linear ([1]; dosing range all): 6.41E-07
logEC10 ([1]; dosing range all): -6.25
SR-ScorePPARγ [1]: 1.00
EC10, PPARγ [1]: 0.557 µM
log(1/EC10) PPARγ [1]: 0.88
Emax [1]: 22%
IC10, linear transformed [2]: 8.61E-05
IC10, linear [2]: 8.24E-05
logIC10 [2]: -4.07
IC10, H4IIe, AhR [2]: 82.4 µM
IC10, linear transformed ([3]; dosing range all): 1.96E-05
IC10, linear ([3]; dosing range all): 9.34E-05
logIC10 ([3]; dosing range all): -4.24
IC10, HEK293, PPARγ [3]: 57.5 µM
IC10, linear transformed ([4]; dosing range all): 6.22E-05
IC10, linear ([4]; dosing range all): 2.44E-04
logIC10 ([4]; dosing range all): -3.85
IC10, HEK293, ERα [4]: 244 µM
IC10, linear transformed ([5]; Bioassay ARE, cytotoxicity): 3.86E-04
IC10, linear [5, 6]: 4.93E-04
logIC10 [5, 7]: -3.41
IC10, linear transformed ([5]; MMP bioassay cytotoxicity): 8.44E-04
IC10, linear [5, 8]: 1.02E-03
logIC10 [5, 9]: -3.07
IC10, MCF7, ARE ([5]; cytotoxicity): 386 µM
IC10, MCF7, MMP ([5]; cytotoxicity): 844 µM

O=S(=O)(c1ccc(O)cc1)c1ccc(OCc2ccccc2)cc1 [BPS-MPE, 4-[4-(benzyloxy)benzenesulfonyl]phenol]
EC10, PPARγ (M) [1]: 2.35 × 10^–7 M
EC10, linear transformed ([1]; dosing range high): 1.15E-09
EC10, linear ([1]; dosing range high): 1.01E-07
logEC10 ([1]; dosing range high): -8.94
EC10, linear transformed ([1]; dosing range low): 2.35E-07
EC10, linear ([1]; dosing range low): 4.02E-07
logEC10 ([1]; dosing range low): -6.63
SR-ScorePPARγ [1]: 1.00
Specificity ratio (SRbaseline) SRPPARγ [1]: 49.84
Specificity ratio (SRcytotoxicity) SRPPARγ [1]: 570.13
EC10, PPARγ [1]: 0.235 µM
log(1/EC10) PPARγ [1]: 0.94
Emax [1]: 25%
IC10, linear transformed [2]: 5.80E-05
IC10, linear [2]: 5.18E-05
logIC10 [2]: -4.24
Toxic ratio (TR) TRAhR [2]: 0.68
IC10, H4IIe, AhR [2]: 51.8 µM
IC10, linear transformed ([3]; dosing range high): 9.04E-06
IC10, linear ([3]; dosing range high): 1.34E-04
logIC10 ([3]; dosing range high): -3.96
IC10, linear transformed ([3]; dosing range low): 1.83E-05
IC10, linear ([3]; dosing range low): 1.11E-05
logIC10 ([3]; dosing range low): -5.06
Toxic ratio (TR) TRPPARγ [3]: 0.09
IC10, HEK293, PPARγ [3]: 134 µM
IC10, linear transformed ([4]; dosing range all): 3.17E-05
IC10, linear ([4]; dosing range all): 1.12E-04
logIC10 ([4]; dosing range all): -4.00
Toxic ratio (TR) TRERα [4]: 0.10
IC10, HEK293, ERα [4]: 112 µM
IC10, linear transformed ([5]; Bioassay ARE, cytotoxicity): 7.91E-05
IC10, linear [5, 6]: 1.19E-04
logIC10 [5, 7]: -4.10
IC10, linear transformed ([5]; MMP bioassay cytotoxicity): 1.23E-04
IC10, linear [5, 8]: 1.88E-04
logIC10 [5, 9]: -3.91
Toxic ratio (TR) TRARE ([5]; against baseline cytotoxicity): 0.45
Toxic ratio (TR) TRMMP ([5]; against baseline cytotoxicity, MMP readout): 0.29
IC10, MCF7, ARE ([5]; cytotoxicity): 79.1 µM
IC10, MCF7, MMP ([5]; cytotoxicity): 123 µM

Oc1ccc(Sc2ccc(O)cc2)cc1 [BPT, 4,4'-Thiodiphenol]
EC10, PPARγ (M) [1]: 9.61 × 10^–7 M
EC10, linear transformed ([1]; dosing range all): 9.61E-07
EC10, linear ([1]; dosing range all): 1.48E-06
logEC10 ([1]; dosing range all): -6.02
SR-ScorePPARγ [1]: 1.00
EC10, PPARγ [1]: 0.961 µM
log(1/EC10) PPARγ [1]: 0.85
Emax [1]: 20%
IC10, linear transformed [2]: 8.07E-05
IC10, linear [2]: 5.00E-05
logIC10 [2]: -4.09
IC10, H4IIe, AhR [2]: 50 µM
IC10, linear transformed ([3]; dosing range all): 4.47E-06
IC10, linear ([3]; dosing range all): 2.13E-05
logIC10 ([3]; dosing range all): -4.76
IC10, HEK293, PPARγ [3]: 17.4 µM
IC10, linear transformed ([4]; dosing range all): 4.06E-05
IC10, linear ([4]; dosing range all): 2.43E-05
logIC10 ([4]; dosing range all): -4.53
IC10, HEK293, ERα [4]: 24.3 µM
IC10, linear transformed ([5]; Bioassay ARE, cytotoxicity): 1.75E-04
IC10, linear [5, 6]: 3.07E-04
logIC10 [5, 7]: -3.76
IC10, linear transformed ([5]; MMP bioassay cytotoxicity): 2.05E-04
IC10, linear [5, 8]: 2.97E-04
logIC10 [5, 9]: -3.69
IC10, MCF7, ARE ([5]; cytotoxicity): 175 µM
IC10, MCF7, MMP ([5]; cytotoxicity): 205 µM

Cc1ccc(S(=O)(=O)NC(=O)Nc2ccc(Cc3ccc(NC(=O)NS(=O)(=O)c4ccc(C)cc4)cc3)cc2)cc1 [BTUM, 4,4'-Bis(p-tolylsulfonylureido)diphenylmethane]
EC10, PPARγ (M) [1]: 2.56 × 10^–7 M
EC10, linear ([1]; dosing range all): 2.64E-07
logEC10 ([1]; dosing range all): -6.59
SR-ScorePPARγ [1]: 1.00
Specificity ratio (SRbaseline) SRPPARγ [1]: 110.22
Specificity ratio (SRcytotoxicity) SRPPARγ [1]: 121.09
EC10, PPARγ [1]: 0.256 µM
log(1/EC10) PPARγ [1]: 0.93
Emax [1]: 47%
SR (PPARγ) ([1]; specificity ratio): 121
IC10, linear [2]: no cytotoxicity
logIC10 [2]: no cytotoxicity
IC10, linear ([3]; dosing range all): 4.34E-05
logIC10 ([3]; dosing range all): -4.51
Toxic ratio (TR) TRPPARγ [3]: 0.91
IC10, HEK293, PPARγ [3]: 31 µM
IC10, linear ([4]; dosing range all): 3.66E-05
logIC10 ([4]; dosing range all): no cytotoxicity
IC10, linear [5, 6]: no cytotoxicity
logIC10 [5, 7]: no cytotoxicity
IC10, linear [5, 8]: no cytotoxicity
logIC10 [5, 9]: no cytotoxicity

COC(=O)C(c1ccc(O)cc1)c1ccc(O)cc1 [Bz, Methyl bis(4-hydroxyphenyl)acetate]
EC10, linear ([1]; dosing range all): no effect
logEC10 ([1]; dosing range all): no effect
IC10, linear transformed [2]: 1.41E-04
IC10, linear [2]: 1.09E-04
logIC10 [2]: -3.85
Toxic ratio (TR) TRAhR [2]: 3.18
IC10, H4IIe, AhR [2]: 109 µM
IC10, linear transformed ([3]; dosing range all): 1.09E-04
IC10, linear ([3]; dosing range all): 3.71E-04
logIC10 ([3]; dosing range all): -3.55
Toxic ratio (TR) TRPPARγ [3]: 0.92
IC10, HEK293, PPARγ [3]: 282 µM
IC10, linear transformed ([4]; dosing range high): 1.18E-04
IC10, linear ([4]; dosing range high): 1.01E-03
logIC10 ([4]; dosing range high): -3.63
IC10, linear ([4]; dosing range low): no cytotoxicity
logIC10 ([4]; dosing range low): no cytotoxicity
Toxic ratio (TR) TRERα [4]: 0.26
IC10, HEK293, ERα [4]: 1010 µM
IC10, linear transformed ([5]; Bioassay ARE, cytotoxicity): 4.96E-04
IC10, linear [5, 6]: 3.89E-04
logIC10 [5, 7]: -3.30
IC10, linear transformed ([5]; MMP bioassay cytotoxicity): 3.45E-04
IC10, linear [5, 8]: 3.44E-04
logIC10 [5, 9]: -3.46
Toxic ratio (TR) TRARE ([5]; against baseline cytotoxicity): 0.70
IC10, MCF7, ARE ([5]; cytotoxicity): 496 µM
